Experimental data reported in PubChem BioAssay (NCI).
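48-hour exposure; five concentrations; linearly interpolated endpoints. GI50 = concentration required for 50% inhibition of growth. TGI is the concentration that stops growth completely.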

How the values were obtained:
Assay in all cases: NCI anticancer screen, dose series, 48 h; in the data active means GI50 below about 0.43 µM; inactive means the rest
786-0 renal = system: 786-0 renal
A498 renal = system: A498 renal
A549 NSCLC = system: A549 NSCLC
ACHN renal = system: ACHN renal
BT-549 breast = system: BT-549 breast
CCRF-CEM leukemia = system: CCRF-CEM leukemia
COLO 205 colon = system: COLO 205 colon
DU-145 prostate = system: DU-145 prostate
EKVX NSCLC = system: EKVX NSCLC
HCC-2998 colon = system: HCC-2998 colon
HCT-116 colon = system: HCT-116 colon
HCT-15 colon = system: HCT-15 colon
HL-60(TB) leukemia = system: HL-60(TB) leukemia
HOP-62 NSCLC = system: HOP-62 NSCLC
HOP-92 NSCLC = system: HOP-92 NSCLC
HS 578T breast = system: HS 578T breast
HT29 colon = system: HT29 colon
IGROV1 ovarian = system: IGROV1 ovarian
K-562 leukemia = system: K-562 leukemia
KM12 colon = system: KM12 colon
LOX IMVI melanoma = system: LOX IMVI melanoma
M14 melanoma = system: M14 melanoma
MALME-3M melanoma = system: MALME-3M melanoma
MCF7 breast = system: MCF7 breast
MDA-MB-231 breast = system: MDA-MB-231 breast
MDA-MB-435 = system: MDA-MB-435
MOLT-4 leukemia = system: MOLT-4 leukemia
NCI-H226 lung = system: NCI-H226 lung
NCI-H23 lung = system: NCI-H23 lung
NCI-H460 lung = system: NCI-H460 lung
NCI-H522 lung = system: NCI-H522 lung
NCI/ADR-RES ovarian = system: NCI/ADR-RES ovarian
OVCAR-3 ovarian = system: OVCAR-3 ovarian
OVCAR-4 ovarian = system: OVCAR-4 ovarian
OVCAR-5 ovarian = system: OVCAR-5 ovarian
OVCAR-8 ovarian = system: OVCAR-8 ovarian
PC-3 prostate = system: PC-3 prostate
RPMI-8226 leukemia = system: RPMI-8226 leukemia
RXF 393 renal = system: RXF 393 renal
SF-268 CNS = system: SF-268 CNS
SF-295 CNS = system: SF-295 CNS
SF-539 CNS = system: SF-539 CNS
SK-MEL-2 melanoma = system: SK-MEL-2 melanoma
SK-MEL-28 melanoma = system: SK-MEL-28 melanoma
SK-MEL-5 melanoma = system: SK-MEL-5 melanoma
SK-OV-3 ovarian = system: SK-OV-3 ovarian
SN12C renal = system: SN12C renal
SNB-19 CNS = system: SNB-19 CNS
SNB-75 CNS = system: SNB-75 CNS
SR leukemia = system: SR leukemia
SW-620 colon = system: SW-620 colon
T-47D breast = system: T-47D breast
TK-10 renal = system: TK-10 renal
U251 CNS = system: U251 CNS
UACC-257 melanoma = system: UACC-257 melanoma
UACC-62 melanoma = system: UACC-62 melanoma
UO-31 renal = system: UO-31 renal

C=C1[C@@H](C)C2[C@H](Cc3ccccc3)NC(=O)[C@]23[C@H](OC(C)=O)/C=C/[C@@](C)(O)C(=O)[C@@H](C)C/C=C/[C@H]3[C@@H]1O (stereo not given in full)
4.19 µM: TGI (RXF 393 renal)
active: GI50 (A498 renal) 0.11 µM | GI50 (HOP-62 NSCLC) 0.035 µM | GI50 (HOP-92 NSCLC) 0.099 µM | GI50 (HS 578T breast) 0.0826 µM | GI50 (HT29 colon) 0.0933 µM | GI50 (LOX IMVI melanoma) 0.272 µM | GI50 (MDA-MB-231 breast) 0.366 µM | GI50 (RXF 393 renal) 0.105 µM | GI50 (SF-268 CNS) 0.228 µM | GI50 (SF-539 CNS) 0.322 µM | GI50 (SK-OV-3 ovarian) 0.0997 µM | GI50 (SNB-19 CNS) 0.265 µM | GI50 (SNB-75 CNS) 0.0126 µM | GI50 (U251 CNS) 0.105 µM | GI50 (UO-31 renal) 0.251 µM
> 16.7 µM: TGI (786-0 renal) | TGI (A549 NSCLC) | TGI (ACHN renal) | TGI (BT-549 breast) | TGI (CCRF-CEM leukemia) | TGI (COLO 205 colon) | TGI (DU-145 prostate) | TGI (EKVX NSCLC) | TGI (HCC-2998 colon) | TGI (HCT-116 colon) | TGI (HCT-15 colon) | TGI (HL-60(TB) leukemia) | TGI (HS 578T breast) | TGI (HT29 colon) | TGI (IGROV1 ovarian) | TGI (K-562 leukemia) | TGI (KM12 colon) | TGI (M14 melanoma) | TGI (MALME-3M melanoma) | TGI (MCF7 breast) | TGI (MDA-MB-231 breast) | TGI (MDA-MB-435) | TGI (MOLT-4 leukemia) | TGI (NCI-H226 lung) | TGI (NCI-H23 lung) | TGI (NCI-H460 lung) | TGI (NCI-H522 lung) | TGI (NCI/ADR-RES ovarian) | TGI (OVCAR-3 ovarian) | TGI (OVCAR-4 ovarian) | TGI (OVCAR-5 ovarian) | TGI (OVCAR-8 ovarian) | TGI (PC-3 prostate) | TGI (RPMI-8226 leukemia) | TGI (SF-268 CNS) | TGI (SF-295 CNS) | TGI (SF-539 CNS) | TGI (SK-MEL-2 melanoma) | TGI (SK-MEL-28 melanoma) | TGI (SN12C renal) | TGI (SNB-19 CNS) | TGI (SR leukemia) | TGI (SW-620 colon) | TGI (T-47D breast) | TGI (TK-10 renal) | TGI (U251 CNS) | TGI (UACC-257 melanoma) | TGI (UACC-62 melanoma)
3.58 µM: TGI (UO-31 renal)
> 8.76 µM: TGI (LOX IMVI melanoma)
> 15.2 µM: TGI (SK-OV-3 ovarian)
inactive: GI50 (A549 NSCLC) 0.915 µM | GI50 (ACHN renal) 1.32 µM | GI50 (BT-549 breast) 0.528 µM | GI50 (CCRF-CEM leukemia) > 11.8 µM | GI50 (COLO 205 colon) 2.32 µM | GI50 (DU-145 prostate) 7.04 µM | GI50 (EKVX NSCLC) 0.975 µM | GI50 (HCC-2998 colon) > 16.7 µM | GI50 (HCT-116 colon) 0.718 µM | GI50 (HL-60(TB) leukemia) 5.31 µM | GI50 (IGROV1 ovarian) 0.574 µM | GI50 (K-562 leukemia) > 16.7 µM | GI50 (KM12 colon) > 16.7 µM | GI50 (M14 melanoma) > 11.4 µM | GI50 (MALME-3M melanoma) > 16.7 µM | GI50 (MCF7 breast) 0.756 µM | GI50 (MDA-MB-435) > 16.7 µM | GI50 (NCI-H226 lung) 16.5 µM | GI50 (NCI-H23 lung) > 16.7 µM | GI50 (NCI-H460 lung) 0.571 µM | GI50 (NCI/ADR-RES ovarian) > 16.7 µM | GI50 (OVCAR-3 ovarian) > 16.7 µM | GI50 (OVCAR-4 ovarian) 0.824 µM | GI50 (OVCAR-5 ovarian) > 9.92 µM | GI50 (OVCAR-8 ovarian) > 16.7 µM | GI50 (PC-3 prostate) > 16.7 µM | GI50 (RPMI-8226 leukemia) 3.84 µM | GI50 (SF-295 CNS) 1.16 µM | GI50 (SK-MEL-2 melanoma) > 16.7 µM | GI50 (SK-MEL-28 melanoma) > 16.7 µM | GI50 (SK-MEL-5 melanoma) 0.955 µM | GI50 (SN12C renal) > 16.7 µM | GI50 (SR leukemia) > 15.7 µM | GI50 (SW-620 colon) > 16.7 µM | GI50 (T-47D breast) > 16.7 µM | GI50 (TK-10 renal) 0.714 µM | GI50 (UACC-257 melanoma) > 16.7 µM | GI50 (UACC-62 melanoma) > 16.7 µM
0.699 µM: TGI (HOP-92 NSCLC)
> 4.4 µM: TGI (HOP-62 NSCLC)
> 11.8 µM: TGI (SK-MEL-5 melanoma)
0.826 µM: TGI (A498 renal)
0.12 µM: TGI (SNB-75 CNS)
